In series [1] the test system is healthy NSG mice. The following applies: for mice survived >2 weeks: 40 mg/kg group; for Mice surviving >2 weeks: 5 d/week, i.p., healthy female NSG mice, n=5/group. The procedure:
Animal weights and body condition scores were measured three times per week. After twenty one days, surviving mice were euthanized and blood collected for clinical chemistry measurements (complete blood count with differential, clinical chemistries). […] 80% of mice survived >2 weeks in the MK-905 40 mg/kg group, and 100% of mice survived the study in the vehicle and MK-905 20 mg/kg groups.

Series [2] deals with NALM6-Luc-mCh-Puro human acute lymphoblastic leukemia. Put plainly: In vivo antitumor efficacy, NALM6-Luc-mCh-Puro leukemia in female NSG mice (BLI). Conditions: MK-905 40 then 20 mg/kg i.p./day, 6-MP 20 then 10 mg/kg i.p./day; for day 15 mean BLI signal: 5 days/week, vehicle 1.65×10^10; for percent of the median vehicle group tumor BLI signal: day 15. The procedure: (§1) The in vivo antitumor efficacy of MK-905 was evaluated in the NALM6-Luc-mCh-Puro human acute lymphoblastic leukemia in female NSG mice. Mice were inoculated with tumor cells on day 0, staged by BLI on day 3, and sorted into matched treatment groups. The primary endpoint of the study was tumor bioluminescence imaging (BLI) signal. Secondary endpoints included: animal survival, weight changes, and clinical pathology markers. Single timepoint drug metabolite testing was conducted after the first dose of MK-905. Studies were run in comparison to vehicle or 6-MP treatment.

Series [3] is described as follows: Single timepoint drug metabolite testing (6-TGMP in mouse plasma) after first dose. Type of series: in vivo. The following applies: two hours following initial dose. As to the method: as §1
Series [4] in a line: ALT (liver inflammation marker) and animal weight in sarcoma-model mice. The procedure: (§2) C57BL/6 mice at 10 weeks of age between 25 g and 30 g were obtained from Envigo. To induce solid tumor growth in animals, 3-5 million murine NPcis (NF1^+/−;p53^+/−) tumor cells grown and harvested from cell culture, were injected subcutaneously to the right flank. […] Animals were then randomly assigned to a treatment arm: Vehicle or MK-905 (n=10/group; average tumor volume of ˜200 mm^3). […] Tumor volume was calculated by the formula: volume=(L×(W^2))/2. […]

Series [5] concerns murine NPcis (NF1^+/−;p53^+/−) tumor cells. Description: Tumor growth in murine sarcoma model (subcutaneous NPcis flank tumors). Type of series: in vivo, mouse. As to the method: as §2

Read-outs that look alike come from different tables or passages of the source. Where only a bound is given, the exact number is not on record here.

`Sc1ncnc2nc[nH]c12` [6-MP, 6-mercaptopurine, reference compound]: the “mice survived >2 weeks” value in series [1] (healthy NSG mice) is on record as “no mice surviving”. In addition, in series [2], the “day 15 mean BLI signal” value was 1.36×10^10 photons/sec and the “percent of the median vehicle group tumor BLI signal” value is reported as 77%. Moreover, the “conversion to the active 6-thioguanine monophosphate (6-TGMP) metabolite” value in series [3] is “no active metabolite was observed”. The “blood ALT increase compared to vehicle-treated mice” value in series [4] (at sacrifice, 6-MP 20 mg/kg i.p., ten days) is given as “two-fold increased”. The “blood ALT as a marker of liver inflammation” value in series [4] (at sacrifice, 6-MP 20 mg/kg i.p., ten days, vehicle 20 U/L) stood at 46 U/L. Moreover, the mean tumor volume in series [5] (6-MP 20 mg/kg i.p., following ten days of dosing, vehicle 2,038 mm^3) was 1,107 mm^3.

For `CC(C)OC(=O)[C@H](C)NP(=O)(OC[C@H]1OC(n2cnc3c(=S)[nH]c(N)nc32)C(O)C1O)Oc1ccccc1` (stereo partly drawn) [MK-905], the “mice survived the study” value in series [1] (20 mg/kg group, healthy NSG mice, twenty one days) worked out at 100%. Besides, in series [1] (20 mg/kg), the “Mice surviving >2 weeks” value is 5/5. In addition, the “mice survived >2 weeks” value in series [1] (healthy NSG mice) stood at 80%. Besides, in series [1] (40 mg/kg), the “Mice surviving >2 weeks” value was 4/5. Besides, in series [2], the “day 15 mean BLI signal” value was 3.27×10^8 photons/sec and the “percent of the median vehicle group tumor BLI signal” value is recorded as 1.3%. Besides, the “conversion to the active 6-thioguanine monophosphate (6-TGMP) metabolite” value in series [3] is recorded as “observed”. In addition, the “Animal weights relative to starting weight” value in series [4] (MK-905 13 mg/kg i.p., fourteen days) is recorded as at most 10%. Moreover, the “Serum ALT as a marker of liver inflammation (in words)” value in series [4] (MK-905 13 mg/kg i.p., fourteen days, versus vehicle) was “normal and not significantly different”. The molecule also had a mean tumor volume in series [5] (MK-905 13 mg/kg i.p., following fourteen days of dosing, vehicle 1,657 mm^3) of 415 mm^3. The “Tumor weights at sacrifice” value in series [5] (MK-905 13 mg/kg i.p., fourteen days, vehicle 1276 mg) is 359 mg.

Values taken from patent publication US20240024347A1 (The Johns Hopkins University, priority 2020, published 2024).
